Measurements as given in ChEMBL document CHEMBL3046004, “Esterase-mediated resistance to pyrethroids in field populations of Helicoverpa armigera (Lepidoptera: Noctuidae) from Central Africa” (2009).

How the values were obtained:
Format in all cases: functional
Helicoverpa armigera [1] = test: Resistance factor, ratio of LD50 for fourth-instar larval stage of Helicoverpa armigera field strain Pitoa isolated from tomato plant to LD50 for fourth-instar larval stage of pyrethroid-susceptible Helicoverpa armigera laboratory strain BK-77
Helicoverpa armigera [2] = test: Insecticidal activity against fourth-instar larval stage of Helicoverpa armigera field strain Gaschiga isolated from tomato plant assessed as mortality applied topically onto thorax measured after 48 hr
Helicoverpa armigera [3] = test: Resistance factor, ratio of LD50 for fourth-instar larval stage of Helicoverpa armigera field strain Ngong to LD50 for fourth-instar larval stage of pyrethroid-susceptible Helicoverpa armigera laboratory strain BK-77
Helicoverpa armigera [4] = test: Resistance factor, ratio of LD50 for fourth-instar larval stage of pyrethroid-resistance Helicoverpa armigera laboratory strain GS-RR06 to LD50 for fourth-instar larval stage of pyrethroid-susceptible Helicoverpa armigera laboratory strain BK-77
Helicoverpa armigera [5] = test: Insecticidal activity against fourth-instar larval stage of Helicoverpa armigera field strain Pitoa isolated from tomato plant assessed as mortality applied topically onto thorax measured after 48 hr
Helicoverpa armigera [6] = test: Insecticidal activity against fourth-instar larval stage of pyrethroid-susceptible Helicoverpa armigera laboratory strain BK-77 assessed as mortality applied topically onto thorax measured after 48 hr
Helicoverpa armigera [7] = test: Insecticidal activity against fourth-instar larval stage of pyrethroid-resistance Helicoverpa armigera laboratory strain GS-RR06 assessed as mortality applied topically onto thorax measured after 48 hr
Helicoverpa armigera [8] = test: Resistance factor, ratio of LD50 for fourth-instar larval stage of Helicoverpa armigera field strain Pitoa isolated from maize plant to LD50 for fourth-instar larval stage of pyrethroid-susceptible Helicoverpa armigera laboratory strain BK-77
Helicoverpa armigera [9] = test: Resistance factor, ratio of LD50 for fourth-instar larval stage of Helicoverpa armigera field strain Gaschiga isolated from tomato plant to LD50 for fourth-instar larval stage of pyrethroid-susceptible Helicoverpa armigera laboratory strain BK-77
Helicoverpa armigera [10] = test: Insecticidal activity against fourth-instar larval stage of Helicoverpa armigera field strain Pitoa isolated from maize plant assessed as mortality applied topically onto thorax measured after 48 hr
Helicoverpa armigera [11] = test: Insecticidal activity against fourth-instar larval stage of Helicoverpa armigera field strain Ngong isolated from cotton plant assessed as mortality applied topically onto thorax measured after 48 hr
Helicoverpa armigera [12] = test: Resistance factor, ratio of LD50 for fourth-instar larval stage of Helicoverpa armigera field strain Tchollire to LD50 for fourth-instar larval stage of pyrethroid-susceptible Helicoverpa armigera laboratory strain BK-77
Helicoverpa armigera [13] = test: Insecticidal activity against fourth-instar larval stage of Helicoverpa armigera field strain Tchollire isolated from cotton plant assessed as mortality applied topically onto thorax measured after 48 hr
Helicoverpa armigera [14] = test: Synergism factor, ratio of LD50 for fourth-instar larval stage of pyrethroid-resistance Helicoverpa armigera laboratory strain GS-RR06 to LD50 for fourth-instar larval stage of pyrethroid-resistance Helicoverpa armigera laboratory strain GS-RR06 in presence of 10 microg/larva cytochrome P450 monooxygenase inhibitor, PBO
Helicoverpa armigera [15] = test: Synergism factor, ratio of LD50 for fourth-instar larval stage of Helicoverpa armigera field strain Gaschiga isolated form hyptis plant to LD50 for fourth-instar larval stage of Helicoverpa armigera field strain Gaschiga isolated from hyptis plant in presence of 10 microg/larva cytochrome P450 monooxygenase inhibitor, PBO
Helicoverpa armigera [16] = test: Insecticidal activity against fourth-instar larval stage of pyrethroid-resistance Helicoverpa armigera laboratory strain GS-RR08 assessed as mortality applied topically onto thorax measured after 48 hr
Helicoverpa armigera [17] = test: (§1) Synergism factor, ratio of LD50 for fourth-instar larval stage of pyrethroid-resistance Helicoverpa armigera field strain Pitoa isolated from tomato plant to LD50 for fourth-instar larval stage of Helicoverpa armigera field strain Pitoa isolated from tomato plant in presence of 10 microg/larva cytochrome P450 monooxygenase inhibitor, PBO
Helicoverpa armigera [18] = test: Insecticidal activity against fourth-instar larval stage of Helicoverpa armigera field strain Guider isolated from cotton plant assessed as mortality applied topically onto thorax 30 min after 10 microg/larva cytochrome P450 monooxygenase inhibitor, PBO application measured after 48 hr
Helicoverpa armigera [19] = test: Resistance factor, ratio of LD50 for fourth-instar larval stage of Helicoverpa armigera Foumbot to LD50 for fourth-instar larval stage of pyrethroid-susceptible Helicoverpa armigera laboratory strain BK-77
Helicoverpa armigera [20] = test: Insecticidal activity against fourth-instar larval stage of Helicoverpa armigera field strain Ngong isolated from cotton plant assessed as mortality applied topically onto thorax 30 min after 10 microg/larva cytochrome P450 monooxygenase inhibitor, PBO application measured after 48 hr
Helicoverpa armigera [21] = test: Insecticidal activity against fourth-instar larval stage of Helicoverpa armigera Foumbot isolated from tomato plant assessed as mortality applied topically onto thorax measured after 48 hr
Helicoverpa armigera [22] = test: Insecticidal activity against fourth-instar larval stage of Helicoverpa armigera field strain Home isolated from cotton plant assessed as mortality applied topically onto thorax measured after 48 hr
Helicoverpa armigera [23] = test: Resistance factor, ratio of LD50 for fourth-instar larval stage of Helicoverpa armigera field strain Sorga to LD50 for fourth-instar larval stage of pyrethroid-susceptible Helicoverpa armigera laboratory strain BK-77
Helicoverpa armigera [24] = test: Synergism factor, ratio of LD50 for Helicoverpa armigera field strain Guider to LD50 for fourth-instar larval stage of Helicoverpa armigera field strain Guider in presence of 10 microg/larva cytochrome P450 monooxygenase inhibitor, PBO
Helicoverpa armigera [25] = test: Insecticidal activity against fourth-instar larval stage of Helicoverpa armigera field strain Home isolated from cotton plant assessed as mortality applied topically onto thorax 30 min after 10 microg/larva cytochrome P450 monooxygenase inhibitor, PBO application measured after 48 hr
Helicoverpa armigera [26] = test: as §1, with “of” for “of pyrethroid-resistance”, “maize” for “tomato”
Helicoverpa armigera [27] = test: Insecticidal activity against fourth-instar larval stage of pyrethroid-resistance Helicoverpa armigera laboratory strain GS-RR06 assessed as mortality applied topically onto thorax 30 min after 10 microg/larva cytochrome P450 monooxygenase inhibitor, PBO application measured after 48 hr
Helicoverpa armigera [28] = test: Insecticidal activity against fourth-instar larval stage of Helicoverpa armigera field strain Mokong isolated from cotton plant assessed as mortality applied topically onto thorax measured after 48 hr
Helicoverpa armigera [29] = test: Resistance factor, ratio of LD50 for fourth-instar larval stage of Helicoverpa armigera field strain Gaschiga isolated from hyptis plant to LD50 for fourth-instar larval stage of pyrethroid-susceptible Helicoverpa armigera laboratory strain BK-77
Helicoverpa armigera [30] = test: Resistance factor, ratio of LD50 for fourth-instar larval stage of Helicoverpa armigera field strain Guider to LD50 for fourth-instar larval stage of pyrethroid-susceptible Helicoverpa armigera laboratory strain BK-77
Helicoverpa armigera [31] = test: Insecticidal activity against fourth-instar larval stage of Helicoverpa armigera Foumbot isolated from tomato plant assessed as mortality applied topically onto thorax 30 min after 10 microg/larva cytochrome P450 monooxygenase inhibitor, PBO application measured after 48 hr
Helicoverpa armigera [32] = test: Insecticidal activity against fourth-instar larval stage of Helicoverpa armigera field strain Pitoa isolated from maize plant assessed as mortality applied topically onto thorax 30 min after 10 microg/larva cytochrome P450 monooxygenase inhibitor, PBO application measured after 48 hr
Helicoverpa armigera [33] = test: Resistance factor, ratio of LD50 for fourth-instar larval stage of Helicoverpa armigera field strain Mokong to LD50 for fourth-instar larval stage of pyrethroid-susceptible Helicoverpa armigera laboratory strain BK-77
Helicoverpa armigera [34] = test: Insecticidal activity against fourth-instar larval stage of Helicoverpa armigera field strain Gaschiga isolated from hyptis plant assessed as mortality applied topically onto thorax 30 min after 10 microg/larva cytochrome P450 monooxygenase inhibitor, PBO application measured after 48 hr
Helicoverpa armigera [35] = test: Resistance factor, ratio of LD50 for fourth-instar larval stage of pyrethroid-resistance Helicoverpa armigera laboratory strain GS-RR08 to LD50 for fourth-instar larval stage of pyrethroid-susceptible Helicoverpa armigera laboratory strain BK-77
Helicoverpa armigera [36] = test: Synergism factor, ratio of LD50 for fourth-instar larval stage of Helicoverpa armigera Foumbot to LD50 for fourth-instar larval stage of Helicoverpa armigera Foumbot in presence of 10 microg/larva cytochrome P450 monooxygenase inhibitor, PBO
Helicoverpa armigera [37] = test: Synergism factor, ratio of LD50 for fourth-instar larval stage of Helicoverpa armigera field strain Home to LD50 for fourth-instar larval stage of Helicoverpa armigera field strain Home in presence of 10 microg/larva cytochrome P450 monooxygenase inhibitor, PBO
Helicoverpa armigera [38] = test: Insecticidal activity against fourth-instar larval stage of Helicoverpa armigera field strain Sorga isolated from cotton plant assessed as mortality applied topically onto thorax measured after 48 hr
Helicoverpa armigera [39] = test: Resistance factor, ratio of LD50 for fourth-instar larval stage of Helicoverpa armigera field strain Djalingo to LD50 for fourth-instar larval stage of pyrethroid-susceptible Helicoverpa armigera laboratory strain BK-77
Helicoverpa armigera [40] = test: Synergism factor, ratio of LD50 for fourth-instar larval stage of Helicoverpa armigera field strain Ngong to LD50 for fourth-instar larval stage of Helicoverpa armigera field strain Ngong in presence of 10 microg/larva cytochrome P450 monooxygenase inhibitor, PBO
Helicoverpa armigera [41] = test: Insecticidal activity against fourth-instar larval stage of Helicoverpa armigera field strain Djalingo isolated from cotton plant assessed as mortality applied topically onto thorax measured after 48 hr
Helicoverpa armigera [42] = test: Insecticidal activity against fourth-instar larval stage of Helicoverpa armigera field strain Gaschiga isolated from hyptis plant assessed as mortality applied topically onto thorax measured after 48 hr
Helicoverpa armigera [43] = test: Insecticidal activity against fourth-instar larval stage of Helicoverpa armigera field strain Guider isolated from cotton plant assessed as mortality applied topically onto thorax measured after 48 hr
Helicoverpa armigera [44] = test: Insecticidal activity against fourth-instar larval stage of pyrethroid-resistance Helicoverpa armigera laboratory strain GS-RR08 assessed as mortality applied topically onto thorax measured after 48 hr in presence of 3.2 microg/larva […]
Helicoverpa armigera [45] = test: Synergism factor, ratio of LD50 for fourth-instar larval stage of pyrethroid-resistance Helicoverpa armigera laboratory strain GS-RR08 to LD50 for fourth-instar larval stage of pyrethroid-resistance Helicoverpa armigera laboratory strain GS-RR08 in presence of 3.2 microg/larva propenofos
Helicoverpa armigera [46] = test: Insecticidal activity against fourth-instar larval stage of Helicoverpa armigera field strain Pitoa isolated from tomato plant assessed as mortality applied topically onto thorax 30 min after 10 microg/larva cytochrome P450 monooxygenase inhibitor, PBO application measured after 48 hr
Helicoverpa armigera [47] = test: Resistance factor, ratio of LD50 for fourth-instar larval stage of Helicoverpa armigera field strain Home to LD50 for fourth-instar larval stage of pyrethroid-susceptible Helicoverpa armigera laboratory strain BK-77

COC(=O)N(C(=O)N1CO[C@@]2(C(=O)OC)Cc3cc(Cl)ccc3C2=N1)c1ccc(OC(F)(F)F)cc1 [INDOXACARB]
Ratio (Helicoverpa armigera [1]): 2
LD50 (Helicoverpa armigera [2]): 0.3 microgAi/g
Ratio (Helicoverpa armigera [3]): 1.4
Ratio (Helicoverpa armigera [4]): 1
LD50 (Helicoverpa armigera [5]): 1.3 microgAi/g
LD50 (Helicoverpa armigera [6]): 0.7 microgAi/g
LD50 (Helicoverpa armigera [7]): 0.7 microgAi/g
Ratio (Helicoverpa armigera [8]): 1.1
Ratio (Helicoverpa armigera [9]): 0.4
LD50 (Helicoverpa armigera [10]): 0.7 microgAi/g
LD50 (Helicoverpa armigera [11]): 0.9 microgAi/g

CCOc1ccc(C(C)(C)COCc2cccc(Oc3ccccc3)c2)cc1 [ETOFENPROX]
Ratio (Helicoverpa armigera [12]): 3
Ratio (Helicoverpa armigera [1]): 10
LD50 (Helicoverpa armigera [13]): 152.2 microgAi/g
LD50 (Helicoverpa armigera [2]): 229.3 microgAi/g
Ratio (Helicoverpa armigera [3]): 2
Ratio (Helicoverpa armigera [4]): 2
LD50 (Helicoverpa armigera [5]): 531.4 microgAi/g
LD50 (Helicoverpa armigera [6]): 55.5 microgAi/g
LD50 (Helicoverpa armigera [7]): 135.7 microgAi/g
Ratio (Helicoverpa armigera [8]): 5
Ratio (Helicoverpa armigera [9]): 4
LD50 (Helicoverpa armigera [10]): 285.3 microgAi/g
LD50 (Helicoverpa armigera [11]): 136.6 microgAi/g

CC1(C)C(C=C(Cl)Cl)C1C(=O)OC(C#N)c1cccc(Oc2ccccc2)c1 (stereo not drawn) [ALPHA-CYPERMETHRIN]
Ratio (Helicoverpa armigera [14]): 1.5
Ratio (Helicoverpa armigera [15]): 25
LD50 (Helicoverpa armigera [16]): 832.5 microgAi/g
Ratio (Helicoverpa armigera [17]): 5
LD50 (Helicoverpa armigera [18]): 8.8 microgAi/g
Ratio (Helicoverpa armigera [19]): 174
LD50 (Helicoverpa armigera [20]): 3 microgAi/g
LD50 (Helicoverpa armigera [21]): 81.6 microgAi/g
LD50 (Helicoverpa armigera [22]): 43.9 microgAi/g
Ratio (Helicoverpa armigera [23]): 123
Ratio (Helicoverpa armigera [24]): 3.6
Ratio (Helicoverpa armigera [12]): 102
LD50 (Helicoverpa armigera [25]): 21.3 microgAi/g
Ratio (Helicoverpa armigera [26]): 8.3
LD50 (Helicoverpa armigera [27]): 480.3 microgAi/g
LD50 (Helicoverpa armigera [28]): 71.5 microgAi/g
Ratio (Helicoverpa armigera [29]): 96
Ratio (Helicoverpa armigera [30]): 67
LD50 (Helicoverpa armigera [31]): 63 microgAi/g
LD50 (Helicoverpa armigera [13]): 48 microgAi/g
LD50 (Helicoverpa armigera [32]): 28.9 microgAi/g
Ratio (Helicoverpa armigera [33]): 152
Ratio (Helicoverpa armigera [3]): 240
LD50 (Helicoverpa armigera [34]): 1.8 microgAi/g
Ratio (Helicoverpa armigera [35]): 1771
Ratio (Helicoverpa armigera [36]): 1.3
Ratio (Helicoverpa armigera [4]): 1529
LD50 (Helicoverpa armigera [6]): 0.5 microgAi/g
Ratio (Helicoverpa armigera [37]): 2.1
LD50 (Helicoverpa armigera [38]): 57.7 microgAi/g
Ratio (Helicoverpa armigera [39]): 194
Ratio (Helicoverpa armigera [40]): 37.5
LD50 (Helicoverpa armigera [41]): 91.5 microgAi/g
LD50 (Helicoverpa armigera [42]): 45 microgAi/g
LD50 (Helicoverpa armigera [43]): 31.6 microgAi/g
LD50 (Helicoverpa armigera [44]): 226.6 microgAi/g
LD50 (Helicoverpa armigera [7]): 718.4 microgAi/g
Ratio (Helicoverpa armigera [45]): 3.7
Ratio (Helicoverpa armigera [8]): 510
LD50 (Helicoverpa armigera [46]): 53.2 microgAi/g
LD50 (Helicoverpa armigera [10]): 239.9 microgAi/g
LD50 (Helicoverpa armigera [11]): 112.6 microgAi/g
Ratio (Helicoverpa armigera [47]): 93
